Laboratory results: article PMC6630718, “Discovery of Novel UV-Filters with Favorable Safety Profiles in the 5-Arylideneimidazolidine-2,4-dione Derivatives Group” (Molecules, 2019)

Legend:
[1] = Ultraviolet spectroscopy in methanol solutions; type: physicochemical; conditions: for Absorption Range: scan range 290–400 nm
Experimental: Spectra with a scan range of 290–400 nm were recorded in 50 or 25 μM methanol solutions, in 1 cm path length, 1.5 mL quartz cuvettes on a U-2800 double beam spectrophotometer (Hitachi, Tokyo, Japan) controlled by UV Solution version 2.2 software. The molar extinction coefficient at maximum absorption (εmax) of tested compounds was determined in methanol as the slope of the linear regression of absorbance vs. concentration of tested compound (from 10 to 50 μM or 2.5 to 30 μM).

[2] = In vitro photoprotection study of 2% (w/w) macrogol formulations on PMMA plates
Source text: The composition of formulations and concentration of tested compounds were based on their limited solubility. N-monosubstituted compounds 2a–2e were insoluble at desirable concentrations in the typical solvents used in cosmetic formulations such as alcohols, triacetin, surfactants, and co-surfactants. To dissolve compounds 2a and 2b before incorporation to the formulation DMSO: Tween 20 (1:9 w/w) was used, for less soluble 2c–2e it was necessary to use DMSO alone as solvent. […] Thus the detailed composition of the formulations is as follows: F1–Tween 20 43.2%, PEG-400 25%, PEG-1500 25%, Triacetin 4.8%, tested compound 2%; F2–Tween 20 43.2%, PEG-400 25%, PEG-1500 25%, DMSO 4.8%, tested compound 2%; F3–PEG-400 25%, PEG-1500 25%, DMSO 48%, tested compound 2%. Considering the disadvantages of currently reported macrogol formulations and the low concentration achieved for the tested compounds (2%), we plan to work on cosmetic emulsions containing the most promising derivatives at higher concentrations as well as required excipients including preservatives, antioxidants, etc. This research will be carried out in the near future.
Tested compounds and commercial UV filters as reference standards were incorporated to a neutral macrogel formulation in the concentration of 2%. Prior to the incorporation, compounds 3a–3e and 4f–4h and reference UV-filters were dissolved in a triacetin:Tween 20 (1:9) solvent system. For compounds 2a–2e it was necessary to use DMSO. The final composition of the macrogol formulations is presented in the photoprotective activity section.
In vitro photoprotection study was performed according to EN ISO 24443:2012 [71] with slight modifications. Formulation with tested compound (32.5 mg) was applied on a polymethylmethacrylate plate (PMMA) with the application area 25 cm^2 and 5 µm roughness value to simulate the skin surface (Schonberg GmbH, Hamburg, Germany). As a reference a PMMA plate treated with approximately 15 µL of glycerin was used. Measurements were carried out by reflectance spectrophotometry with SPF-290AS Analyser (Solar Light Company, Glenside, PA, USA) equipped with integrating sphere controlled by WinSPF version X.X. software. For each sample two plates were prepared, absorbance measures were performed on 6 different positions of the plate from 290 to 400 nm with 1 nm steps. The results were expressed as an average of data from 12 scans.

[3] = In vitro stability in mouse liver microsomes; type: in vitro ADME; conditions: mouse liver microsomes
Experimental: Mouse liver microsomes (MLMs) were used to investigate the phase I metabolism of selected compounds (2c, 2d, 3b, 4g, 5a) and the reference substance BP-2. Samples composed of test compound (20 µM), MLMs (0.8 mg/mL) and potassium phosphate buffer (100 mM, pH 7.4) were preincubated prior to addition of NADPH-regenerating system. NADPH-regenerating system contained NADP, glucose-6-phosphate, glucose-6-phosphate dehydrogenase and potassium phosphate buffer (100 mM, pH 7.4). Control incubations were performed in the absence of the NADPH-regenerating system and in case of esters (2c, 2d, 3b and 4g) without the mouse liver microsomes solution to determine spontaneous hydrolysis. Incubations were conducted at 37 °C for at least 15 min up to 60 min. The reactions were stopped by the addition of 250 μL ice-cold methanol containing internal standard PTX (20 μM). The mixture was then centrifuged. Supernatant analysis was performed using UPLC/MS (Waters Corporation). The assays were repeated two times. The in vitro half times (t1/2) for test compounds were determined from the slope of the linear regression of ln % parent compound remaining versus incubation time. The calculated t1/2 was incorporated into the following equation to obtain intrinsic clearance: (Clint) = (volume of incubation [µL]/ protein in the incubation [mg]) × 0.693 / t1/2 [74].

[4] = Photostability in methanol solutions (solar light simulator); type: physicochemical; parameters: λmax pre-irradiation: unit not given beside the values; conditions: methanol solution; for % of initial AUC post-irradiation / λmax post-irradiation: 1h irradiation at 500 W/m2
Experimental: (§1) The photostability evaluation of compounds was performed both in methanol solutions and in macrogol formulations. Irradiation of samples according to previous studies was conducted for 1 h at 500 W/m^2 (cumulative dose of ultraviolet radiation 218 kJ/m^2) with solar light simulator (Suntest CPS+, Atlas, Linsengericht, Germany) equipped with an optical filter cutting off wavelengths shorter than 290 nm and IR-block filter to neutralize thermal effects. The UV absorption spectrum of the samples were analysed post-irradiation and compared with pre-irradiation results. UPLC-MS/MS analyses were also performed.
(§2) Methanol solutions were tested at concentration 25 or 50 µM in quartz cuvettes with the PTFE stopper to prevent evaporation or leaking of the solvent. Macrogol formulations (2% w/w) were tested on PMMA plates (1.3 mg/cm^2). After post-irradiation measure of UV absorption, exposed and unexposed plates were washed with 5 mL of methanol, then mixtures were filtered and analysed by UPLC-MS/MS. All analyses were performed in duplicates.

[5] = Ames MPF Penta 2 microplate mutagenicity assay, TA98; type: cell-based; conditions: Salmonella typhimurium, read-out: FIB (fold induction over baseline), positive control
Experimental: (§3) The assay is a liquid microplate modification of the traditional Salmonella test. During the procedure, bacteria are exposed to different concentrations of a test compound for 90 min in a medium containing sufficient histidine (S. typhimurium) or tryptophan (E. coli) to support cell divisions. Then, the cultures are diluted in pH indicator medium lacking histidine or tryptophan and aliquoted into 48 wells of a 384-well plate. Within 48 hours, cells that have undergone reversion to amino acid prototrophy will grow into colonies. Bacterial metabolism reduces pH of the medium, changing the color of that well from purple to yellow (https://www.xenometrix.ch).
(§4) The following strains were used in the study: S. typhimurium TA98, TA100, TA1535, TA1537 and E. coli wp2 uvrA[pKM101]. TA100, TA1535 and E. coli strains are used for the detection of base substitution mutations, whereas TA98 and TA1537 are utilized for the detection of frameshift mutations. S. typhimurium strains have GC base pairs, whereas E. coli strain has AT base pair at their primary reversion site and detect certain oxidizing mutagens, cross-linking agents and hydrazines.
(§5) The test procedure provided by Xenometrix (https://www.xenometrix.ch) and described earlier was followed. Briefly, the bacterial strains were grown overnight in exposure medium and exposed to test compounds 4g and 3b in 24-well plates for 90 min at 37 °C with agitation in the absence (–S9) or presence (+S9) of 4.5% phenobarbital/ β-naphthoflavone-induced rat liver S9. Compounds 4g and 3b were dissolved in DMSO and tested at final concentrations of 0.1, 0.2 and 0.5 mM. After the preincubation, the cultures were diluted in the indicator medium and the contents of each 24-well culture were distributed into 48 wells on a 384-well plate and incubated further for 48 h at 37 °C without agitation. After the exposure, the number of wells containing bacteria was scored by eye for yellow wells. Positive and negative controls were included in the assay, and all doses were done in triplicate.
(§6) Pure DMSO was used as the negative control.
(§7) The fold increase of revertants relative to the solvent control was determined by dividing the mean number of positive wells at each dose by the solvent control at baseline. The solvent control at baseline was defined as the mean number of positive wells in the solvent control plus one standard deviation (SD). When an increase of more than 2-fold relative to the baseline at more than one dose with a dose–response is observed the sample is classified as positive, whereas when no response >2 times the baseline and no dose–response is stated the sample is negative.

[6] = Ames MPF Penta 2 microplate mutagenicity assay, TA100; type: cell-based; conditions: Salmonella typhimurium; TA100, +S9, 1.25 µg/mL; read-out: FIB (fold induction over baseline), positive control
Experimental: as §3, §4, §5, §6, §7

[7] = Photostability in macrogol formulations on PMMA plates (solar light simulator); type: physicochemical
Experimental: After irradiation of thin layer of formulations applied on PMMA plates, their photoprotective parameters were determined and compared with the pre-irradiation results. The study gives an overview on functional photostability of the tested compounds. It is an important test, because the photostability of some compounds in low concentrated solutions may meaningfully differ from results obtained for higher concentrations used in sunscreen products. […] In the present study both UVB and UVA-absorbers were tested, so the changes in SPFin vitro, UVA PF and AUC after irradiation are taken into account as a measure of photostability.
as §1, §2

in vitro = conditions: Salmonella typhimurium
Experimental: as §3, §4, §5, §6, §7

[8] = Ames MPF Penta 2 microplate mutagenicity assay, TA1535; conditions: Salmonella typhimurium, FIB (fold induction over baseline), positive control, TA1535, –S9, 100 µg/mL
Experimental: as §3, §4, §5, §6, §7

[9] = 2% (w/w) macrogol formulation F1 (Triacetin 4.8%)
[10] = 2% (w/w) macrogol formulation F1 (Tween 20, PEG-400, PEG-1500, Triacetin 4.8%)
[11] = after 1 h irradiation at 500 W/m^2, formulation F2 (DMSO 4.8%)
[12] = after 1 h irradiation at 500 W/m^2, formulation F3 (DMSO 48%)
[13] = 2% (w/w) macrogol formulation F2 (DMSO 4.8%)
[14] = after 1 h irradiation at 500 W/m^2, formulation F1

## COc1ccc(C(=O)CC(=O)c2ccc(C(C)(C)C)cc2)cc1 [Avobenzone, butyl methoxy-dibenzoylmethane, reference compound]
[1]
  εmax: 36820 M⁻¹ cm⁻¹
  λmax: 358 nm
  Absorption Range: 290–393 nm
[2]; [9]
  UVA PF: 7.56 ± 0.19
  UVA/UVB Ratio: 2.49 ± 0.03
  λc (critical wavelength): 381 nm
[2]; [10]
  SPFin vitro: 2.23 ± 0.03

## COc1ccc(/C=C2\NC(=O)NC2=O)cc1OC [Compound 1e, (Z)-5-(3,4-Dimethoxybenzylidene)imidazolidine-2,4-dione]
[3]
  Probable Transformation: O-dealkylation
[3]; mouse, pH 7.4, mouse liver microsomes 0.8 mg/mL, 20 µM compound, NADPH-regenerating system, 37 °C, read-out: t ½
  half-life at 20 µM: 1.02 h
[3]; mouse, pH 7.4, mouse liver microsomes, calculated from t1/2
  microsomal CLint at 20 µM: 14 µL/min/mg
[4]
  λmax pre-irradiation: 341
  % of initial AUC post-irradiation: 95.38%
  λmax post-irradiation: 346
[1]
  εmax: 28440 M⁻¹ cm⁻¹
  λmax: 341 nm
  Absorption Range: 290–384 nm

## Nc1ccc2cc3ccccc3cc2c1 [Compound 2-AA, 2-aminoanthracene, reference compound]
[5]; TA98, +S9, 0.5 µg/mL
  fold induction at 90 min, 0.5 µg/mL: 12.6
[6]
  fold induction at 90 min, 1.25 µg/mL: 3.1

## O=[N+]([O-])c1ccc2c(c1)Cc1ccccc1-2 [Compound 2-NF, 2-nitrofluorene, reference compound]
[5]; S. typhimurium TA98 without S9 (–S9), TA98, –S9, 2 µg/mL
  fold induction at 90 min, 2 µg/mL: 25.3

## CCOC(=O)CN1C(=O)N/C(=C\c2ccc(OC)cc2)C1=O [Compound 2b, Ethyl (Z)-2-(4-(4-methoxybenzylidene)-2,5-dioxoimidazolidin-1-yl)acetate]
[4]
  λmax pre-irradiation: 334
  % of initial AUC post-irradiation: 95.67%
  λmax post-irradiation: 341
other
  melting point: 178 to 179 °C
[7]; DMSO in formulation reduced from 48 to 4.8%
  improvement of the functional photostability: 30.2%
[7]; [11]
  % of Initial AUC: 59.55%
  % of Initial SPFin vitro: 57.19%
  % of Initial UVA PF: 54.31%
[7]; [12]
  % of Initial AUC: 35.28%
  % of Initial SPFin vitro: 36.51%
  % of Initial UVA PF: 24.13%
[7]; formulation with DMSO 48% (F3), extreme values
  decrease of tested parameters (SPFin vitro, UVA PF, AUC) after irradiation: 75.9%
[1]
  εmax: 31920 M⁻¹ cm⁻¹
  λmax: 334 nm
  Absorption Range: 290–372 nm
[2]; [13]
  SPFin vitro: 3.20 ± 0.07
  UVA PF: 4.29 ± 0.11
  UVA/UVB Ratio: 1.20 ± 0.00
  λc (critical wavelength): 363 nm

## Nc1c2ccccc2nc2ccccc12 [Compound 9-AAc, 9-aminoacridine, reference compound]
In vitro
  fold induction at 90 min, 15 µg/mL: 48

## NNc1ccn([C@@H]2O[C@H](CO)[C@@H](O)[C@H]2O)c(=O)n1 [Compound N4-ACT, N4-aminocytidine, reference compound]
[8]
  fold induction at 90 min, 100 µg/mL: 40

## CCCCC(CC)COC(=O)C=Cc1ccc(OC)cc1 (stereo not shown) [EHMC, ethylhexyl methoxycinnamate, reference compound]
[4]
  decrease of AUC after irradiation: 36.7%
  λmax pre-irradiation: 309
  % of initial AUC post-irradiation: 63.26%
  λmax post-irradiation: 307
[7]; [14]
  % of Initial AUC: 78.45%
  % of Initial SPFin vitro: 80.83%
  % of Initial UVA PF: 88.76%
[1]
  εmax: 22990 M⁻¹ cm⁻¹
  λmax: 309 nm
  Absorption Range: 290–339 nm
[2]; [9]
  UVA PF: 1.34 ± 0.05
  UVA/UVB Ratio: 0.05 ± 0.01
  λc (critical wavelength): 321 nm
[2]; [10]
  SPFin vitro: 4.96 ± 0.33

## CCCCC(CC)COC(=O)C(C#N)=C(c1ccccc1)c1ccccc1 (stereo not shown) [Octocrylene, octocrylene, reference compound]
[1]
  εmax: 13650 M⁻¹ cm⁻¹
  λmax: 302 nm
  Absorption Range: 290–349 nm
[2]; [9]
  UVA PF: 1.20 ± 0.03
  UVA/UVB Ratio: 0.12 ± 0.01
  λc (critical wavelength): 327 nm
[2]; [10]
  SPFin vitro: 2.87 ± 0.16
